Reference: US20260071220A1, “CONJUGATE OF NUCLEOTIDE ANALOG-CONTAINING DOUBLE-STRANDED RNAI ANALOG” (BaseCure Therapeutics LLC, priority 2022, published 2026)
In the oligonucleotide strings, read from the 5' end, every base follows the letter of its sugar. An asterisk marks phosphorothioate; unmarked linkages are phosphodiester. Other units and linkages are bracketed, terminal groups are in braces. A string of capitals states the bases alone. {D01} = GalNAc ligand D01, attached to sense strand by a phosphodiester bond; m = 2'-O-methyl; f = 2'-fluoro

Test system: AGT mRNA
Experiment: Compound activity experiment in Huh7 cell line (transfection, AGT mRNA by qPCR)
Assay type: cell-based, human
Details: Huh7, RNAiMAX transfection, 24 h
Protocol: 1. Objective: this study aims to evaluate the inhibitory effect of the conjugate described in this patent on a target gene using a Huh7 cell line. The inhibitory activity of the compound on target gene AGT is evaluated based on the EC50 value of the compound as an index.
Huh7 cells were provided by Shanghai WuXi AppTec New Drug Development Co., Ltd. Hub7 cells were cultured in MEM medium containing 10% fetal bovine serum and 1% penicillin streptomycin.
1) On Day 1, a mixed solution of an RNAiMAX transfection reagent and Opti-MEM was prepared as needed in a ratio of RNAiMAX transfection reagent:Opti-MEM=1.5:48.5, and incubated for 15 min at room temperature;
2) For cells in each well, a certain amount of diluted compound was taken and added into an equal amount of RNAiMAX Optim-MEM medium to be mixed well, and then incubated for 15 min;
3) Huh7 cells were taken and washed with DPBS, digested with trypsin, and the density of the cells was adjusted to an appropriate density;
4) The cells were seeded into a 96-well plate at a density of 2,0000 cells/well while adding a mixture of 20 μL Opti-MEM RNAiMax and the compound into the cell culture plate, and the volume of the final medium for each well was 120 μL.
5) The cells were incubated for 24 h in an incubator under the conditions of 5% CO2 and 37° C. […]
The cDNA of the target gene was detected by qPCR. qPCR was carried out in a 384-well plate using GAPDH as an internal reference gene. […]
This method requires the introduction of the internal reference gene GAPDH, as the internal reference gene is expressed in all the cells and its product is necessary for maintaining cell survival; and the expression level or copy number of the genome in cells remains constant and is less affected by environmental factors. After qRT-PCR, the CT value of the internal reference will also be recorded, called Ct (GAPDH), and the CT value of the sample is called Ct (sample).

Conjugate 2: Double-stranded RNAi analog against AGT, D01 GalNAc ligand on sense strand; sense SEQ ID NO: 6, antisense SEQ ID NO: 2 containing Z (sense mA*mU*fCfCmAfCfAfAmUmGmAmGmAfGmUmAmCmA-{D01}; antisense CUCACAUGUACNCUCAUUGUGGAUGACGA; antisense: chemistry not given here; antisense strand modified, includes nucleotide analog Z, further chemistry not fully specified)
Emax (remaining AGT mRNA): 5%
EC50 (AGT mRNA, read-out: Absolute EC50): 5.92 pM
Log (concentration) (log of the absolute EC50 (matches nM)): −2.228
